Columns and labels:
[1] = tested on: Colon adenocarcinoma cells LS174T; assay: RNA disruption in LS174T cells; format: cell-based; details: 24 hr, FIG. 20A
Method: Colon adenocarcinoma cells LS174T were incubated with Sunitinib, a receptor tyrosine kinase inhibitor. RNA was isolated from the cells and analyzed using an Agilent Bioanalyzer.
RNA was isolated from the cells and analyzed using an Agilent Bioanalyzer.

tumour sample = assay: Maximal RDI score in tumour biopsies of patients on neo-adjuvant Zometa; format: in vivo, human; details: after the first cycle, FIG. 17C and 17D
Method: Biopsy samples were obtained from patients undergoing neo-adjuvant therapy with Zometa. RNA was isolated and analyzed using the Agilent Bioanalyzer. Electropherograms were analyzed using the methods 100 and 400 and the maximal RDI score was graphed for each tumour sample at each time-point.

[2] = tested on: A2780 ovarian cancer cells; assay: RNA disruption in drug-treated A2780 cells (Agilent Bioanalyzer electropherogram/gel); format: cell-based, human; details: for Low C Area/(28S+18S) vs docetaxel dose: method 400; for RNA electropherogram banding pattern: 24 hours at 37° C.
Method: RNA was isolated from ovarian cancer cell line A2780 cells which had been treated with 10 μM docetaxel in 50% media or 20 μM epirubicin, each in 50% media. Cells were treated with the chemotherapeutic for 24 hours at 37° C. Isolated RNA was separated by microcapillary electrophoresis using the Agilent 2100 Bioanalyzer.
Cells were plated and treated with docetaxel concentrations ranging from 0.001-40 μM for 24 to 72 hours to assess the effect on cell number, RNA content, and integrity (measured using a Bioanalyzer 2100 from Agilent Technologies, Inc.).
RNA was isolated and electrophoretically separated on an Agilent Bioanalyzer. As shown in FIG. 9D bands appeared just below the 28S (e.g. intermediate) and 18S bands (e.g. low banding region) at 0.005 uM and peaked at 0.2 uM.
A time course experiment was conducted in A2780 cells. Cells were treated for up to 72 hours with docetaxel at 0.005 uM and 0.2 uM. RNA was isolated and run on an Agilent Bioanalyzer.
Plots of the combination of features Intermediate Area/(28S+18S) and Low C Area/(28S+18S) were generated using the method 400 although method 300 may also be used.

[3] = tested on: A2780 ovarian cancer cells; assay: Amount of RNA per cell in A2780 cells treated with docetaxel; format: cell-based, human
Method: A2780 cells treated for up to 72 hours with docetaxel at 0.005 uM and 0.2 uM, were analyzed for the amount of RNA per cell. RNA was isolated and electophoretically separated using an Agilent Bioanalyzer.

A2780 cells = assay: Recovery Assay after docetaxel treatment; format: cell-based, human; details: 0.2 uM docetaxel up to 72 hours, washed, replated in drug-free media, FIG. 9C
Method: A Recovery Assay was next carried out to determine if A2780 cells could recover from treatment with 0.2 uM docetaxel. A2780 cells were treated with 0.2 uM docetaxel for up to 72 hours and then washed and replated in drug-free media.

[4] = tested on: docetaxel-resistant A2780DXL cells; assay: RNA disruption in docetaxel-resistant A2780 cells; format: cell-based, human
Method: A docetaxel A2780 resistant cell line was made as described in Li et al., Int. J. Mol. Med 2004 14(20): 257-264.
A time course experiment was conducted. Sensitive parental and docetaxel resistant A2780 cells were treated with docetaxel for 24 hours. RNA was isolated and run on an Agilent Bioanalyzer.

xenograft tumours = assay: RNA from docetaxel-treated xenograft tumours after storage in liquid nitrogen or saline (Agilent 2100 Bioanalyzer); format: in vivo; parameters: 18S Area / 28S Area / RNA Area: unit not given here
Method: RNA isolated from xenograft tumours stored in liquid nitrogen, RNALater™ solution or left in saline for 1h, 2h, 5h and 24h to induce autocatalytic degradation was analyzed by measuring an RNA Integrity Number (RIN) using Agilent 2100 Bioanalyzer. […] Circles above the gel lanes indicate that an RIN number could be calculated (FIG. 8A). Circles encapsulated by squares indicate samples for which an RIN number could not be calculated. Control samples were untreated xenograft tumours (1-7). Treated samples (8-12) were given docetaxel. Various measurements for the data shown in FIGS. 8B-8M follow in Tables 3.1 to 3.12.

[5] = tested on: A2780 ovarian cancer cells; assay: Cell counts of A2780 cells treated with docetaxel; details: up to 72 hours, FIG. 9A
Method: A2780 cells were treated for up to 72 hours with docetaxel at 0.005 uM and 0.2 uM. Cell counts were measured at each time-point.

[6] = tested on: Jurkat T leukemia cell line; details: Fimognari et al 2009; cited from earlier work
[7] = tested on: Colon adenocarcinoma cells SW480; assay: RNA disruption in SW480 cells; format: cell-based; details: 72 hr, FIG. 20C
Method: Colon adenocarcinoma cells SW480 were incubated with Epirubicin, a DNA synthesis inhibitor. RNA was isolated from the cells and analyzed using an Agilent Bioanalyzer. RNA Disruption is evident at 72 hr at […] (see FIG. 20C).

[8] = tested on: A2780 ovarian cancer cells; assay: Effect of caspase inhibitor on RNA integrity changes in docetaxel-treated cells; format: cell-based, human; details: FIG. 9J
Method: The effect of a caspase inhibitor on RNA integrity changes was next assessed. Cells were treated with or without docetaxel at a concentration of 0.2 uM in the presence or absence of the caspase inhibitor Q-DEVD-OPH (Biovision Laboratories) at a concentration of 10 uM.

[9] = tumour left in saline 1h, sample 9
[10] = tumour left in saline 2h, sample 10
[11] = tumour left in saline 5h, sample 11
[12] = tumour left in saline 24h, sample 12
[13] = tumour stored in liquid nitrogen, sample 8

## CCN(CC)CCNC(=O)c1c(C)[nH]c(/C=C2\C(=O)Nc3ccc(F)cc32)c1C [Sunitinib]
[1]
  concentration at which RNA Disruption is evident: 54 mM

## O=P(O)(O)C(O)(Cn1ccnc1)P(=O)(O)O [Zometa]
Tumour sample
  RDI values: increased in some patients

## CC(=O)O[C@@]12CO[C@@H]1C[C@H](O)[C@@]1(C)C(=O)[C@H](O)C3=C(C)[C@@H](OC(=O)[C@H](O)[C@@H](NC(=O)OC(C)(C)C)c4ccccc4)C[C@@](O)([C@@H](OC(=O)c4ccccc4)[C@H]21)C3(C)C [docetaxel]
[2]; 8 hr, 24 hr, or 48 hr
  Low C Area/(28S+18S) vs docetaxel dose: Little change
[2]; 24 hours, 0 to 40 uM, FIG. 9D
  docetaxel concentration at which banding below 28S and 18S peaked: 0.2 µM
  docetaxel concentration at which bands appeared just below the 28S and 18S bands: 0.005 µM
[2]; FIG. 9D, 24 hours
  docetaxel concentration at which additional bands are visible on gel: 0.05 µM
[2]; RDI = Intermediate Area/(28S+18S)
  docetaxel concentrations giving dose and time-dependent reductions in cell number and cell RIN values while RDI increased: ≥ 0.1 µM
[2]; after 72 hr
  Low C Area/(28S+18S) vs docetaxel dose: dramatic increase
[2]; docetaxel 0.005 uM and 0.2 uM, 24 to 72 hours, FIG. 9F
  Intermediate/(28S+18S): increases dramatically with time
[2]; docetaxel 0.005 uM and 0.2 uM, 24 to 72 hours, FIG. 9G
  Low banding area/(28S+18S): also increases with time
[2]; docetaxel 0.005 uM and 0.2 uM, up to 72 hours, FIG. 9H
  RNA banding in time course: banding appears below the 28S and 18S bands at all time-points
[2]; docetaxel 10 μM in 50% media, FIG. 2
  RNA electropherogram banding pattern: shows an intermediate peak and a peak adjacent to the 18S peak
[2]; docetaxel concentrations ≥0.005 uM
  RIN: did not change significantly
[2]; sensitive parental cells, 24 hours, FIG. 9I
  docetaxel concentration at which banding appears below the 28S and 18S bands: 0.005 µM
[3]; docetaxel 0.005 uM and 0.2 uM, up to 72 hours, FIG. 9B
  amount of RNA per cell: increase in a time-dependent and dose-dependent manner
[3]; low docetaxel concentrations
  RNA content per cell: increased per cell
A2780 cells
  resumption of cell proliferation after drug withdrawal: No resumption of cell proliferation
[4]; A2780DXL cells treated with docetaxel
  RNA disruption and cellular RNA content: did not result in RNA disruption or changes in cellular RNA content
[4]; resistant cells, docetaxel 24 hours, FIG. 9I
  RNA banding below the 28S and 18S bands: no banding is evident
Xenograft tumours; [9]
  18S % of total Area: 8.3%
  18S Area: 13.2
  28S % of total Area: 6.4%
  28S Area: 10.2
  RNA Area: 158.5
  RNA Concentration: 85 ng/µL
  rRNA Ratio [28 s/18 s]: 0.8
Xenograft tumours; [10]
  18S % of total Area: 9.8%
  18S Area: 27.3
  28S % of total Area: 6.6%
  28S Area: 18.5
  RNA Area: 278.5
  RNA Concentration: 150 ng/µL
  RNA Integrity Number (RIN): 6.5 (B.02.06)
  RNA Ratio [28 s/18 s]: 0.7
Xenograft tumours; [11]
  18S % of total Area: 6.5%
  18S Area: 15.4
  28S % of total Area: 6.6%
  28S Area: 15.4
  RNA Area: 235.4
  RNA Concentration: 127 ng/µL
  rRNA Ratio [28 s/18 s]: 1.0
Xenograft tumours; [12]
  18S % of total Area: 1.1%
  18S Area: 1.9
  RNA Area: 168.9
  RNA Concentration: 91 ng/µL
  RNA Integrity Number (RIN): 2.7 (B.02.06)
  rRNA Ratio [28 s/18 s]: 0.0
Xenograft tumours; [13]
  18S % of total Area: 18.4%
  18S Area: 46.1
  28S % of total Area: 21.8%
  28S Area: 54.6
  RNA Area: 250.5
  RNA Concentration: 135 ng/µL
  RNA Integrity Number (RIN): 9.1 (B.02.06)
  rRNA Ratio [28 s/18 s]: 1.2
[5]
  docetaxel concentrations at which cell numbers remained constant: greater than or equal to 0.005 uM

## COc1cccc2c1C(=O)c1c(O)c3c(c(O)c1C2=O)C[C@@](O)(C(=O)CO)C[C@@H]3O[C@H]1C[C@H](N)[C@H](O)[C@H](C)O1 [doxorubicin]
[6]
  susceptibility of total RNA to chemical attack: susceptible to chemical attack

## COc1cccc2c1C(=O)c1c(O)c3c(c(O)c1C2=O)C[C@@](O)(C(=O)CO)C[C@@H]3O[C@H]1C[C@H](N)[C@@H](O)[C@H](C)O1 [epirubicin]
[2]; epirubicin 20 μM in 50% media, FIG. 3
  RNA electropherogram banding pattern: intermediate bands between the 18S and 28S peaks
[7]
  concentration at which RNA Disruption is evident: 0.5 mM

## Q-DEVD-OPH
[8]; 0.2 uM docetaxel with or without 10 uM caspase inhibitor
  bands below the 28S and 18S bands: detectable in the presence and absence
[8]; 10 uM inhibitor with 0.2 uM docetaxel, 72 hr
  effect on loss of 28S and 18S bands: reduces the loss of 28S and 18S bands

Reference: patent US12633374B2, “Method for determining efficacy of chemotherapy treatment for a subject” (RNA Diagnostics Inc., priority 2012, dated 2026)
